{"source": "patent US20260085101A1", "about": "“NOVEL PLATELET DERIVED GROWTH FACTOR PEPTIDE MIMETIC” (THE UNIVERSITY OF SYDNEY, priority 2022, published 2026)", "key": {"[1]": {"test_system": "C57BL6/J mice", "experiment": "Murine model of acute myocardial infarction (permanent LAD occlusion), echocardiography and heart weight/tibia length", "format": "in vivo, mouse", "conditions": "for average day 2 to day 28 Δ ejection fraction: change from day 2 to day 28; for day 28 ejection fraction / decrease in ESV versus PBS (MI) cohort (mean diff.) / mean heart weight/tibia length / mean end systolic volume (ESV) at day 28 / mean end diastolic volume (EDV) at day 28: mice; for day 28 ejection fraction: 28 days post MI, 60 μg/kg PDGF−AB or 32.50 mg/kg peptide via implanted minipump, mean (±SD), PBS 26.89%; for decrease in ESV versus PBS (MI) cohort (mean diff.) / mean heart weight/tibia length / mean end systolic volume (ESV) at day 28 / mean end diastolic volume (EDV) at day 28: day 28 post MI; for mean heart weight/tibia length: PBS 0.01913; for mean end systolic volume (ESV) at day 28 / mean end diastolic volume (EDV) at day 28: minipump; for mean end systolic volume (ESV) at day 28: PBS 116.6 μL; for mean end diastolic volume (EDV) at day 28: PBS 155.9 μL", "description": "FIG. 9: Improved Cardiac function at Day 28 Post Myocardial Infarction. […] C) A decrease in end diastolic volumes was also observed in PDGF−AB (p=0.0016) and JC5 (p=0.0185) treated mice versus PBS. […] E) Timeline of mean EF per treatment group. Baseline indicates the pre-infarct EF per group. Day 2 and day 28 indicates days post infarct. A-C) Error bars represent ±SD. D) Data presented as median ±minimum and maximum values. One way ANOVA comparing all groups to the PBS vehicle control group (n=10/11).\nFIG. 11: Decreased Heart Weight/Tibia Length in Mice Treated with JC5. […] Error bars represent ±SD.\nCardiac function was monitored using echocardiography with a post MI baseline at day 2 and a day 28 end point followed by tissue collection and calculation of heart weight divided by tibia length. Mice were randomised into treatment groups receiving either 60 μg/kg of the positive control recombinant human PDGF−AB, 32.50 mg/kg of novel mimetic peptide JC5, 32.50 mg/kg of novel mimetic peptide JC5a, or phosphate buffered saline (PBS) as a vehicle control, via implanted minipump, at the time of infarction. In addition to this sham controls were included using non-infarcted healthy mice receiving either 32.50 mg/kg of novel mimetic peptide JC5 or 32.50 mg/kg of novel mimetic peptide JC5a.\nLeft ventricular ejection fraction (LVEF) is directly proportionate to the difference between left ventricle end diastolic volume and the left ventricular end systolic volume (LVEDV-LVESV) and inversely proportionate to left ventricular end diastolic volume (LVEDV). The value is created by the following equation LVEF=(LVEDV-LVESV)/LVEDV. Increased end diastolic volume (EDV) indicates possible dilation of the ventricle whilst increased end systolic volume (ESV) indicates a possible decrease in contractile function. In mice treated with positive control PDGF−AB (MI) and novel mimetic peptide JC5 (MI) there was a significant decrease in both ESV and EDV at day 28 when compared to the vehicle control, PBS (MI), cohort. The decreased ESV of the PDGF−AB (MI) cohort at day 28 aligned with what was expected of the positive control with a mean ESV of 55.04 μL (±23.66), […] (mean diff.) less than the PBS (MI) cohort (p=0.0003). […] These were both a significant decrease from the PBS (MI) cohort with a mean EDV of 155.9 μL (±47.15) (JC5 p=0.0185, PDGF−AB p=0.0016)."}, "[2]": {"test_system": "C2C12 mouse myoblasts", "experiment": "Scratch migration (chemotaxis) assay on C2C12 cells", "format": "cell-based", "conditions": "for migration of cells across the scratch: 24 hours at 37° C., 10 ng/ml PDGF, 1 μg/ml peptides, mean (±SD); for increase in migration compared to the negative control (Mean Diff) / increase in migration compared to the no treatment control (Mean Diff.): 24 hours; for increase in migration compared to the negative control (Mean Diff): vs AG1296+PDGF−AB negative control; for increase in migration compared to the no treatment control (Mean Diff.): vs no treatment control", "method": "FIG. 2. Migration of C2C12 Mouse […] Cells Treated with PDGF and peptides JC5 and JC5a. C2C12 mouse fibroblast cells migrate across the scratch over 24 hours. Cells were treated with 10 ng/ml PDGF−AB (n=6), PDGF−BB (n=6), and 1 μg/ml of novel PDGF mimetic JC5 (n=6) and JC5a (n=3). […] There was also no statistically significant difference between the PDGF mimetic peptides and PDGF−AB and −BB positive controls. Error bars represent ±SD. The function of Compounds Ia (also referred to herein as JC5) and Ib (also referred to herein as JC5a) has been tested in vitro on the continuous cell line, C2C12 mouse myoblasts. In these in vitro assays recombinant PDGF−AB and −BB have been used as positive controls along with a serum starved no treatment control and the PDGF receptor inhibitor AG1296 co-treated with PDGF−AB as a negative control. The in vitro assays were designed to assess the major known functions of PDGF whilst also considering functions that are relevant to its in vivo applications. These functions were chemotaxis, collagen contraction, vascular tube formation and activation of the PDGF receptors via phosphorylation of Akt and Erk. Chemotaxis was assessed by making a scratch through a 2D culture of C2C12 cells following treatment with the four controls and the peptides JC5 and JC5a. They were then incubated for 24 hours at 37° C. Migration of the cells across the scratch at the conclusion of the incubation was measured and compared to the relevant controls described above. PDGF is a well-established mediator of chemotaxis and is expected to increase migration of the cells across the scratch over the course of 24 hours post treatment."}, "[3]": {"test_system": "primary human coronary artery endothelial cells (HCAECs)", "experiment": "Vascular tube forming assay on Geltrex", "format": "cell-based", "conditions": "24 hours; for tube length: 50 ng/ml PDGF, 5 μg/ml JC5, 10 μM AG1296, mean (±SD); for increased tube length compared to the negative control (Mean Diff.): vs AG1296+PDGF−AB (307.7 μm); for increased tube length compared to the no treatment control (Mean Diff.): vs no treatment control (305 μm)", "method": "FIG. 4. Tube formation of Human Coronary Artery Endothelial Cells Treated with PDGF and PDGF Mimetic Peptide JC5. Human coronary artery endothelial cells treated with 50 ng/ml of PDGF−AB and PDGF−BB produced longer tubes than untreated cells and cells treated with the PDGF receptor inhibitor AG1296+PDGF−AB. […] Error bars represent ±SD, n=3/group.\nPDGF has a well-established role in angiogenesis in vivo. To simulate this function in vitro a vascular tube forming assay on primary human coronary artery endothelial cells (HCAECs) was carried out. Cells were seeded on top of 3D growth factor reduced Geltrex basement membrane extract and incubated for 24 hours following treatment with the PDGF−AB, PDGF-BB, no treatment control, AG1296+PDGF−AB negative control, and peptides JC5 and JC5a. Over the course of 24 hours the cells form tubes throughout the gel. PDGF is reported to facilitate tube formation of endothelial cells in in vitro 3D assays.\nCells treated with 50 ng/ml of PDGF−AB, PDGF-BB, and 5 μg/ml of JC5 produced longer more uniform tubes than untreated cells and cells treated with the negative control 10 μM PDGF receptor inhibitor AG1296 co-treated with 50 ng/ml PDGF−AB (FIG. 4). The positive controls PDGF−AB and PDGF−BB produced tubes that were 560.7 μm (±53.93) and 616.3 μm (±39.07), respectively. […] The no treatment control and AG1296+PDGF−AB negative control produced tubes that were 305 μm and 307.7 μm, respectively. […] In summary, JC5 has similar vascular tube forming ability to recombinant human PDGF−AB and PDGF-BB."}}}
{"compound": "CCCCCCCCCCCCCCCC(=O)NCCCC[C@H](NC(=O)[C@H](CCC(=O)O)NC(=O)[C@H](Cc1ccc(O)cc1)NC(=O)[C@@H](CCC(=O)O)NC(=O)CCOCCOCCOCCNC(=O)CCOCCOCCOCCNC(=O)[C@@H](CCCCN)NC(=O)[C@@H](CCCCN)NC(=O)[C@@H](CCCNC(=N)N)NC(=O)[C@@H](NC(=O)[C@@H](NC(=O)[C@H](CCC(=O)O)NC(=O)[C@@H](NC(=O)[C@H](CCCCN)NC(=O)[C@@H](CCCNC(=N)N)NC(=O)[C@H](NC(=O)[C@H](N)CSSC[C@@H](N)C(=O)N[C@@H](C(=O)N[C@H](CCCNC(=N)N)C(=O)N[C@@H](CCCCN)C(=O)N[C@H](C(=O)N[C@@H](CCC(=O)O)C(=O)N[C@H](C(=O)N[C@H](C(=O)N[C@H](CCCNC(=N)N)C(=O)N[C@H](CCCCN)C(=O)N[C@H](CCCCN)C(=O)NCCOCCOCCOCCC(=O)NCCOCCOCCOCCC(=O)N[C@H](CCC(=O)O)C(=O)N[C@@H](Cc1ccc(O)cc1)C(=O)N[C@@H](CCC(=O)O)C(=O)N[C@@H](CCCCNC(=O)CCCCCCCCCCCCCCC)C(=O)N[C@@H](CCC(=O)O)C(=O)N[C@@H](Cc1ccc(O)cc1)C(=O)N[C@@H](CCC(=O)O)C(N)=O)C(C)C)[C@H](C)CC)[C@@H](C)CC)C(C)C)C(C)C)[C@@H](C)CC)[C@H](C)CC)C(C)C)C(=O)N[C@@H](CCC(=O)O)C(=O)N[C@@H](Cc1ccc(O)cc1)C(=O)N[C@@H](CCC(=O)O)C(N)=O", "note": "[JC5a, PDGF Loop III dimer USA dimer (CVRKIEIVRKK)2(Peg3)2(EYEK(Palm)EYE)2-C′]", "values": [{"measurement": "average day 2 to day 28 Δ ejection fraction", "setting": "[1]; mice post MI", "result": 10.82, "unit": "%"}, {"measurement": "day 2 to day 28 change in ejection fraction greater than PBS (MI) (mean diff.)", "setting": "[1]; mice post MI, vs PBS vehicle control", "result": 18.02, "unit": "%"}, {"measurement": "day 28 ejection fraction", "setting": "[1]", "result": 39.24, "unit": "%"}, {"measurement": "migration of cells across the scratch", "setting": "[2]", "result": 79.88, "unit": "%"}, {"measurement": "increase in migration compared to the negative control (Mean Diff)", "setting": "[2]", "result": 62.71, "unit": "%"}, {"measurement": "increase in migration compared to the no treatment control (Mean Diff.)", "setting": "[2]", "result": 59.56, "unit": "%"}]}
{"compound": "PDGF Loop III dimer HSA (CVRKIEIVRKK)2(Peg3)2EYEK(Palm)EYE-C′ [JC5]", "values": [{"measurement": "average day 2 to day 28 Δ ejection fraction", "setting": "[1]; mice post MI", "result": 6.686, "unit": "%"}, {"measurement": "day 28 ejection fraction", "setting": "[1]", "result": 42.06, "unit": "%"}, {"measurement": "decrease in ESV versus PBS (MI) cohort (mean diff.)", "setting": "[1]", "result": 49.58, "unit": "µL"}, {"measurement": "mean heart weight/tibia length", "setting": "[1]", "result": 0.01462}, {"measurement": "mean end systolic volume (ESV) at day 28", "setting": "[1]", "result": 67.01, "unit": "µL"}, {"measurement": "mean end diastolic volume (EDV) at day 28", "setting": "[1]", "result": 108.6, "unit": "µL"}, {"measurement": "migration of cells across the scratch", "setting": "[2]", "result": 68.28, "unit": "%"}, {"measurement": "increase in migration compared to the negative control (Mean Diff)", "setting": "[2]", "result": 51.71, "unit": "%"}, {"measurement": "increase in migration compared to the no treatment control (Mean Diff.)", "setting": "[2]", "result": 47.96, "unit": "%"}, {"measurement": "tube length", "setting": "[3]", "result": 591.3, "unit": "μm"}, {"measurement": "increased tube length compared to the negative control (Mean Diff.)", "setting": "[3]", "result": 283.7, "unit": "μm"}, {"measurement": "increased tube length compared to the no treatment control (Mean Diff.)", "setting": "[3]", "result": 286.3, "unit": "μm"}]}
{"compound": "PDGF−AB: recombinant human PDGF−AB, AB heterodimer of recombinant PDGF, positive control", "values": [{"measurement": "average day 2 to day 28 Δ ejection fraction", "setting": "[1]; mice post MI", "result": 7.104, "unit": "%"}, {"measurement": "day 28 ejection fraction", "setting": "[1]", "result": 43.44, "unit": "%"}, {"measurement": "decrease in ESV versus PBS (MI) cohort (mean diff.)", "setting": "[1]", "result": 61.54, "unit": "µL"}, {"measurement": "mean heart weight/tibia length", "setting": "[1]", "result": 0.01344}, {"measurement": "mean end systolic volume (ESV) at day 28", "setting": "[1]", "result": 55.04, "unit": "µL"}, {"measurement": "mean end diastolic volume (EDV) at day 28", "setting": "[1]", "result": 93.75, "unit": "µL"}, {"measurement": "tube length", "setting": "[3]", "result": 560.7, "unit": "μm"}, {"measurement": "increased tube length compared to the negative control (Mean Diff.)", "setting": "[3]", "result": 253, "unit": "μm"}, {"measurement": "increased tube length compared to the no treatment control (Mean Diff.)", "setting": "[3]", "result": 255.7, "unit": "μm"}]}
